Laboratory results reported in patent US20220259193A1, “KCNT1 INHIBITORS AND METHODS OF USE” (Praxis Precision Medicines, Inc., priority 2019, published 2022).

Target: T1, KCNT1 (KNa1.1, Slack) (Homo sapiens, UniProt Q5JUK3)
T1 construct: expressed in transfected cells; host or cells: HEK-TREX (tetracycline-inducible HEK cell line)
T1 sequence (Q5JUK3 1-1230): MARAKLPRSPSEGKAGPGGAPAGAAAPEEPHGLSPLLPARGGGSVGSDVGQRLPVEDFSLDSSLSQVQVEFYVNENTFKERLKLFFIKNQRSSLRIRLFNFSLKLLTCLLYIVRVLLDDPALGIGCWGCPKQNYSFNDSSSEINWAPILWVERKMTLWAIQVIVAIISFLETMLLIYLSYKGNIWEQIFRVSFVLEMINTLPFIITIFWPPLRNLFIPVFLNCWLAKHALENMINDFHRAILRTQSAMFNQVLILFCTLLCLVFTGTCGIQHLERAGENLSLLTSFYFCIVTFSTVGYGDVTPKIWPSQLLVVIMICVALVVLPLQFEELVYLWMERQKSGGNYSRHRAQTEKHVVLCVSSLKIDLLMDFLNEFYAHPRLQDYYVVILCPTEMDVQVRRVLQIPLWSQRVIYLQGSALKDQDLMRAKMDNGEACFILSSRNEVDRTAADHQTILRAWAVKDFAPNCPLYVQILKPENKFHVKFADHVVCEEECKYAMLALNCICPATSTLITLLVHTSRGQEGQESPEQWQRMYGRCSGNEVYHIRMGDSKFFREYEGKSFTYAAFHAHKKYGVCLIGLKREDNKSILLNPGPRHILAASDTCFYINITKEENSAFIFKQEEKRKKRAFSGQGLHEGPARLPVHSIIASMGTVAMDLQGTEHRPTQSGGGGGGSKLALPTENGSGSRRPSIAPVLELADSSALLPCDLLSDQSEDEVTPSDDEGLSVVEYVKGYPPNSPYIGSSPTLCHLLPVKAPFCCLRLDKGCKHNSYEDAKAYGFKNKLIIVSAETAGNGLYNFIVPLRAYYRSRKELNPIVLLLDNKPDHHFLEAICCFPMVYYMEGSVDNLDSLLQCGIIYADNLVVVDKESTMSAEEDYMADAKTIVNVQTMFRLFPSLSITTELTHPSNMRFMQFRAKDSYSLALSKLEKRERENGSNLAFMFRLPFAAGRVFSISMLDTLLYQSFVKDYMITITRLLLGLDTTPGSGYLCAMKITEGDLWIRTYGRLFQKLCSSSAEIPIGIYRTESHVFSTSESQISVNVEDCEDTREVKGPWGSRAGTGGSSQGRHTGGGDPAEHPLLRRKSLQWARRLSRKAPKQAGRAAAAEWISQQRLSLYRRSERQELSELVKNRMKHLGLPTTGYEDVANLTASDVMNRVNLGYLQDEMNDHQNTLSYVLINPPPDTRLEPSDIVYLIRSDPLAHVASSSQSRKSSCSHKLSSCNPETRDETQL
Assay: KCNT1 patch clamp assay (SyncroPatch 384PE automated patch clamp)
Assay type: cell-based
Settings: tetracycline inducible HEK-TREX cell line; perforated patch; step from −80 mV to 0 mV; room temperature; read-out: KCNT1-WT IC50
Summary of the method: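 Tetracycline-inducible HEK-TREX cells; perforated-patch (10 μM escin) population recordings at room temperature, holding −80 mV with 100 ms step to 0 mV.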

Structure (SMILES)	IC50
C[C@H](NC(=O)c1ccnn1CC1CC1)c1nc(-c2ccnc(C3CC3)c2)no1 [Compound 310, 2-(cyclopropylmethyl)-N-[(1S)-1-[3-(2-cyclopropyl-4-pyridyl)-1,2,4-oxadiazol-5-yl]ethyl]pyrazole-3-carboxamide]	≤ 1000 nM
Cn1nc(C2CC2)cc1C(=O)NC(COCc1ccccc1)c1nc(-c2cccc(F)c2)no1 (centres unmarked) [Compound 58, N-[2-benzyloxy-1-[3-(3-fluorophenyl)-1,2,4-oxadiazol-5-yl]ethyl]-5-cyclopropyl-2-methyl-pyrazole-3-carboxamide]	1000 to 20000 nM
C[C@H](NC(=O)c1cc(C(F)(F)F)nn1C)c1nc(-c2ccnc(CO)c2)no1 [Compound 258, N-[(1S)-1-[3-[2-(hydroxymethyl)-4-pyridyl]-1,2,4-oxadiazol-5-yl]ethyl]-2-methyl-5-(trifluoromethyl)pyrazole-3-carboxamide]	1000 to 20000 nM
COCC(NC(=O)c1cc(C(F)(F)F)nn1C)c1nc(-c2cccc(C)c2)no1 (centres unmarked) [Compound 72]	≤ 1000 nM
CC(c1nc(-c2cccc(CO)c2)no1)N(C)C(=O)c1cc(C(F)(F)F)nn1C (centres unmarked) [Compound 177, N-(1-(3-(3-(hydroxymethyl)phenyl)-1,2,4-oxadiazol-5-yl)ethyl)-N,1-dimethyl-3-(trifluoromethyl)-1H-pyrazole-5-carboxamide]	≥ 20000 nM
Cc1nn(C(C)C)cc1C(=O)N[C@@H](C)c1nc(-c2cccc(F)c2)no1 [Compound 95]	1000 to 20000 nM
CCOc1cc(-c2noc([C@H](C)NC(=O)c3cc(C(F)(F)F)nn3C)n2)ccn1 [Compound 205, (S)—N-(1-(3-(2-ethoxypyridin-4-yl)-1,2,4-oxadiazol-5-yl)ethyl)-1-methyl-3-(trifluoromethyl)-1H-pyrazole-5-carboxamide]	≤ 1000 nM
C[C@H](NC(=O)c1cc(C(F)(F)F)nn1C)c1nc(-c2ccnc(CN3CCCC3)c2)no1 [Compound 261, (S)-1-methyl-N-(1-(3-(2-(pyrrolidin-1-ylmethyl)pyridin-4-yl)-1,2,4-oxadiazol-5-yl)ethyl)-3-(trifluoromethyl)-1H-pyrazole-5-carboxamide]	≥ 20000 nM
Cc1cccc(-c2noc(C(C)NC(=O)c3cc(C(F)F)nn3C)n2)c1 (centres unmarked) [Compound 21]	≤ 1000 nM
Cc1nn(C(C)C)cc1C(=O)NC(C)c1nc(-c2cccc(Cl)c2)no1 (centres unmarked) [Compound 96]	≤ 1000 nM
C[C@H](NC(=O)c1cc(C(F)(F)F)nn1C)c1nc(-c2ccnc(C#N)c2)no1 [Compound 267, (S)—N-(1-(3-(2-cyanopyridin-4-yl)-1,2,4-oxadiazol-5-yl)ethyl)-1-methyl-3-(trifluoromethyl)-1H-pyrazole-5-carboxamide]	1000 to 20000 nM
Cn1nc(C2CC2)cc1C(=O)N[C@H](c1nc(-c2cccc(F)c2)no1)C1CC1 (single isomer, unassigned) [Compound 109]	≤ 1000 nM
Cn1nc(C(F)(F)F)cc1C(=O)NC(CC#N)c1nc(-c2cccc(F)c2)no1 (centres unmarked) [Compound 141]	1000 to 20000 nM
CC(C)Oc1cc(-c2noc([C@H](C)NC(=O)c3cc(C(F)(F)F)nn3C)n2)ccn1 [Compound 201, (S)—N-(1-(3-(2-isopropoxypyridin-4-yl)-1,2,4-oxadiazol-5-yl)ethyl)-1-methyl-3-(trifluoromethyl)-1H-pyrazole-5-carboxamide]	≤ 1000 nM
C[C@H](NC(=O)c1cc(C(F)(F)F)nn1C)c1nc(-c2nccc(C(F)(F)F)n2)no1 [Compound 237, (S)-1-methyl-3-(trifluoromethyl)-N-(1-(3-(4-(trifluoromethyl)pyrimidin-2-yl)-1,2,4-oxadiazol-5-yl)ethyl)-1H-pyrazole-5-carboxamide]	≥ 20000 nM
CC(NC(=O)c1cc(C(F)(F)F)nn1C)c1nc(-c2cccc(CO)c2)no1 (centres unmarked) [Compound 176, N-(1-(3-(3-(hydroxymethyl)phenyl)-1,2,4-oxadiazol-5-yl)ethyl)-1-methyl-3-(trifluoromethyl)-1H-pyrazole-5-carboxamide]	1000 to 20000 nM
CC(NC(=O)c1c2c(nn1C)CCCC2)c1nc(-c2cccc(F)c2)no1 (centres unmarked) [Compound 133]	1000 to 20000 nM
CC(C)OC(=O)N[C@@H](C)c1nc(-c2ccnc(C3CC3)c2)no1 [Compound 277]	1000 to 20000 nM
Cc1nn(-c2ccc(F)cc2)cc1C(=O)N[C@@H](C)c1nc(-c2cccc(F)c2)no1 [Compound 154]	≤ 1000 nM

Structure (SMILES)	IC50
C[C@H](NC(=O)OCc1ccccc1)c1nc(-c2ccnc(C3CC3)c2)no1 [Compound 273]	≤ 1000 nM
C[C@H](NC(=O)c1cc(C(F)(F)F)nn1C)c1nc(-c2ccnc(CN(C)C)c2)no1 [Compound 260, (S)—N-(1-(3-(2-((dimethylamino)methyl)pyridin-4-yl)-1,2,4-oxadiazol-5-yl)ethyl)-1-methyl-3-(trifluoromethyl)-1H-pyrazole-5-carboxamide]	≥ 20000 nM
C[C@H](NC(=O)c1cn(CC(F)(F)F)nc1C1CC1)c1nc(-c2cccc(F)c2)no1 [Compound 151]	1000 to 20000 nM
Cc1cccc(-c2noc(C(C)NC(=O)c3cnn(C(C)C)c3C)n2)c1 (centres unmarked) [Compound 59]	≥ 20000 nM
C[C@H](NC(=O)c1cc(C(F)(F)F)nn1C)c1nc(-c2ccc(F)c(F)c2)no1 (single isomer, unassigned) [Compound 77]	≤ 1000 nM
C[C@H](NC(=O)c1ccnn1C1CCC1)c1nc(-c2ccnc(C3CC3)c2)no1 [Compound 304, 2-cyclobutyl-N-[(1S)-1-[3-(2-cyclopropyl-4-pyridyl)-1,2,4-oxadiazol-5-yl]ethyl]pyrazole-3-carboxamide]	≤ 1000 nM
Cc1cccc(-c2noc(C(C)NC(=O)c3cc(C(C)C)nn3C)n2)c1 (centres unmarked) [Compound 10]	≤ 1000 nM
Cc1nn(C2CCOCC2)cc1C(=O)N[C@@H](C)c1nc(-c2cccc(F)c2)no1 [Compound 152]	1000 to 20000 nM
CC[C@H](NC(=O)c1cc(C2CC2)nn1C)c1nc(-c2cccc(F)c2)no1 [Compound 60]	≤ 1000 nM
Cc1nn(CC(F)(F)F)cc1C(=O)N[C@@H](C)c1nc(-c2cccc(F)c2)no1 [Compound 164]	1000 to 20000 nM
C[C@H](NC(=O)c1cc(C(F)(F)F)nn1C)c1nc(-c2ccnc(OC3CC(F)(F)C3)c2)no1 [Compound 208, (S)—N-(1-(3-(2-(3,3-difluorocyclobutoxy)pyridin-4-yl)-1,2,4-oxadiazol-5-yl)ethyl)-1-methyl-3-(trifluoromethyl)-1H-pyrazole-5-carboxamide]	≤ 1000 nM
CC(NC(=O)c1cc(C(F)(F)F)nn1C)c1nc(-c2cccc(O)c2)no1 (centres unmarked) [Compound 186, N-(1-(3-(3-hydroxyphenyl)-1,2,4-oxadiazol-5-yl)ethyl)-1-methyl-3-(trifluoromethyl)-1H-pyrazole-5-carboxamide]	1000 to 20000 nM
C[C@H](NC(=O)c1cc(C(F)(F)F)nn1C(F)F)c1nc(-c2cccc(Cl)c2)no1 (single isomer, unassigned) [Compound 83]	1000 to 20000 nM
C[C@H](NC(=O)c1cc(C(F)(F)F)nn1C(F)F)c1nc(-c2cccc(F)c2)no1 [Compound 127]	≤ 1000 nM
CC(NC(=O)c1cc(C(F)(F)F)nn1C)c1nc(-c2cccc(C(N)=O)c2)no1 (centres unmarked) [Compound 193, N-(1-(3-(3-carbamoylphenyl)-1,2,4-oxadiazol-5-yl)ethyl)-1-methyl-3-(trifluoromethyl)-1H-pyrazole-5-carboxamide]	≥ 20000 nM
C[C@H](NC(=O)c1cc(C(F)(F)F)nn1C)c1nc(-c2ccnc(C3CCCC3)c2)no1 [Compound 307, (S)—N-(1-(3-(2-cyclopentylpyridin-4-yl)-1,2,4-oxadiazol-5-yl)ethyl)-1-methyl-3-(trifluoromethyl)-1H-pyrazole-5-carboxamide]	≤ 1000 nM
COC(=O)CC(NC(=O)c1cc(C(F)(F)F)nn1C)c1nc(-c2cccc(F)c2)no1 (single isomer, unassigned) [Compound 125, methyl 3-[3-(3-fluorophenyl)-1,2,4-oxadiazol-5-yl]-3-[[2-methyl-5-(trifluoromethyl)pyrazole-3-carbonyl]amino]propanoate]	≤ 1000 nM
Cn1nc(C(F)(F)F)cc1C(=O)NC1(c2nc(-c3cccc(F)c3)no2)CCOCC1 [Compound 118]	1000 to 20000 nM
Cc1nn(C2CC2)cc1C(=O)N[C@@H](C)c1nc(-c2cccc(F)c2)no1 [Compound 161]	1000 to 20000 nM
